These results are taken from US20260242373A1, “NBD1 MODULATORS AND METHODS OF USING THE SAME” (Sionna Therapeutics Inc., priority 2023, published 2026).

The subject of this assay is NBD1. As to the kind of experiment: Aggregation analysis of NBD1 thermal stability by differential static light scattering (DSLS). The assay is classed as binding, Human. Particulars: 100 μM compound; ΔTagg versus DMSO control. On the procedure: Purified recombinant NBD1 was produced using previously described methods (A. Schmidt, J. L. Mendoza, P. J. Thomas (2011) Biochemical and Biophysical Approaches to Probe CFTR Structure (365-376) M. D. Amaral, K. Kunzelmann (eds.), Cystic Fibrosis, Methods in Molecular Biology 741, Springer Science+Business Media). The effect of test compounds on thermal stability of NBD1 was evaluated by differential static light scattering (DSLS) using the Harbinger Stargazer-384 instrument (Epiphyte Three, Toronto, Canada). Test compounds were dissolved and diluted to desired concentrations in 100% DMSO. The compounds or DMSO controls (100 nL) were stamped into wells of a […] low volume optical plate (Corning Inc., Corning, NY) using the Echo 555 acoustic liquid handler (Labcyte Inc., San Jose, CA).
NBD1 protein was diluted to 0.2 mg/ml in S200 buffer (50 mM Tris-HCl, 150 mM NaCl, 5 mM MgCl2, 2 mM ATP, 2 mM DTT, pH7.6) containing 1% glycerol. 10 uL of protein solution was aliquoted into the 384-well plate harboring the test compounds and 10 uL mineral oil was overlayed onto the protein solution, using the epMotion robotic liquid handler (Eppendorf North America, Hauppauge, NY). After placing into the Stargazer instrument, the plate was heated at 1° C. per minute to 70° C. Images were captured from 25° C. to 70° C. every 0.5° C. At the end of the experiment run, instrument software integrated image files and analyzed data automatically. A […] regression curve was generated for each well, representing the increase in light scattering over time. A temperature of aggregation (Tagg) was calculated based on the inflection point of the curve. To better compare data across experiments the average Tagg for DMSO control wells was calculated and subtracted from values for wells containing compounds to obtain a “ΔTagg” value. These ΔTagg values reflect stabilizing efficacy of the compounds.
Regarding `CCOc1cc(C(C)c2cccc(CCC(=O)O)c2F)nn1-c1cc(Oc2c(F)cc3[nH]ccc3c2F)ccc1F` (stereo not drawn) [Compound 49, 3-(3-(1-(1-(5-((4,6-Difluoro-1H-indol-5-yl)oxy)-2-fluorophenyl)-5-ethoxy-1H-pyrazol-3-yl)ethyl)-2-fluorophenyl)propanoic acid], the “DSLS NBD1/3D Human Stability delta-T (° C.) @ 100 (μM)” value (from here on “DSLS NBD1/3D Human Stability delta-T”) was “B (B: 4-8° C.)”.
`Cc1c(Oc2ccc(F)c(-c3nc(Cc4csc(CCC(=O)O)n4)c[nH]3)c2)c(F)cc2[nH]ccc12` [Compound 1, 3-(4-((2-(2-fluoro-5-((6-fluoro-4-methyl-1H-indol-5-yl)oxy)phenyl)-1H-imidazol-4-yl)methyl)thiazol-2-yl)propanoic acid]: the “DSLS NBD1/3D Human Stability delta-T” value is listed as “B (B: 4-8° C.)”.
For `O[C@H](Cc1cncs1)c1c[nH]c(-c2cccc(Oc3ccc4[nH]ccc4c3)c2)n1` (single isomer, unassigned) [Compound 23] the value was “B (B: 4-8° C.)”.
For the molecule `Cc1ncc(Cc2nnc(-c3cccc(Oc4ccc5[nH]ccc5c4)c3)[nH]2)s1` [Compound 18, 5-((5-(3-((1H-indol-5-yl)oxy)phenyl)-4H-1,2,4-triazol-3-yl)methyl)-2-methylthiazole], the “DSLS NBD1/3D Human Stability delta-T” value was “B (B: 4-8° C.)”.
For the molecule `O=C(O)CCc1cccc(Cc2cc(N3CCCC3=O)n(-c3cc(Oc4c(F)cc5[nH]ccc5c4F)ccc3F)n2)c1` [Compound 58, 3-[3-[[1-[5-[(4,6-difluoro-1H-indol-5-yl)oxy]-2-fluoro-phenyl]-5-(2-oxopyrrolidin-1-yl)pyrazol-3-yl]methyl]phenyl]propanoic acid], the “DSLS NBD1/3D Human Stability delta-T” value was “C (C: ≤4° C.)”.
With `COc1cc(C(C)c2cccc(CCC(=O)O)c2F)nn1-c1cc(Oc2c(F)cc3[nH]ccc3c2F)ccc1F` (stereo not drawn) [Compound 50, 3-(3-(1-(1-(5-((4,6-difluoro-1H-indol-5-yl)oxy)-2-fluorophenyl)-5-methoxy-1H-pyrazol-3-yl)ethyl)-2-fluorophenyl)propanoic acid] the entry was “B (B: 4-8° C.)”; with `Cc1csc(Cc2nnc(-c3cccc(Oc4ccc5[nH]ccc5c4)c3)[nH]2)n1` [Compound 15, 2-((5-(3-((1H-indol-5-yl)oxy)phenyl)-4H-1,2,4-triazol-3-yl)methyl)-4-methylthiazole], “C (C: ≤4° C.)”; with `Cn1cc(C(O)c2cnc(-c3cccc(Oc4ccc5[nH]ccc5c4)c3)[nH]2)cn1` (stereo not drawn) [Compound 27, (2-(3-((1H-indol-5-yl)oxy)phenyl)-1H-imidazol-5-yl)(1-methyl-1H-pyrazol-4-yl)methanol], “B (B: 4-8° C.)”.
As for `OC(c1c[nH]c(-c2cccc(Oc3ccc4[nH]ccc4c3)c2)n1)c1nccs1` (stereo not drawn) [Compound 21, (2-(3-((1H-indol-5-yl)oxy)phenyl)-1H-imidazol-4-yl)(thiazol-2-yl)methanol], the “DSLS NBD1/3D Human Stability delta-T” value is recorded as “B (B: 4-8° C.)”.
For `CC(c1cccc(CCC(=O)O)c1F)c1nn(-c2cc(Oc3c(F)cc4[nH]ccc4c3F)ccc2F)c2c1CCC2` (stereo not drawn) [Compound 59, 3-[3-[1-[1-[5-[(4,6-difluoro-1H-indol-5-yl)oxy]-2-fluoro-phenyl]-5,6-dihydro-4H-cyclopenta[c]pyrazol-3-yl]ethyl]-2-fluoro-phenyl]propanoic acid] the value was “C (C: ≤4° C.)”.
For `CSc1cc(C(C)c2cccc(CCC(=O)O)c2F)nn1-c1cc(Oc2c(F)cc3[nH]ccc3c2F)ccc1F` (stereo not drawn) [Compound 52, 3-(3-(1-(1-(5-((4,6-difluoro-1H-indol-5-yl)oxy)-2-fluorophenyl)-5-(methylthio)-1H-pyrazol-3-yl)ethyl)-2-fluorophenyl)propanoic acid] the value was “C (C: ≤4° C.)”; for `Cc1ccc(C(O)c2c[nH]c(-c3cccc(Oc4ccc5[nH]ccc5c4)c3)n2)s1` (stereo not drawn) [Compound 20, (2-(3-((1H-indol-5-yl)oxy)phenyl)-1H-imidazol-4-yl)(5-methylthiophen-2-yl)methanol], “B (B: 4-8° C.)”.
Take `O=C(O)CCc1ncc(Cc2cnc(-c3cc(Oc4c(F)cc5[nH]ccc5c4F)ccc3F)[nH]2)s1` [Compound 2, 3-(5-((2-(5-((4,6-difluoro-1H-indol-5-yl)oxy)-2-fluorophenyl)-1H-imidazol-5-yl)methyl)thiazol-2-yl)propanoic acid]: the “DSLS NBD1/3D Human Stability delta-T” value is on record as “B (B: 4-8° C.)”.
Turning to `C[C@H](c1nc(-c2cc(Oc3c(F)cc4[nH]ccc4c3F)ccc2F)n(C)n1)c1ccc(CCC(=O)O)s1` (single isomer, unassigned) [Compound 45], the “DSLS NBD1/3D Human Stability delta-T” value is reported as “A (A: T ≥8° C.)”.
For `O=C(O)CCn1ccc(Cc2cnc(-c3cc(Oc4c(F)cc5[nH]ccc5c4F)ccc3F)[nH]2)n1` [Compound 5, 3-(3-((2-(5-((4,6-difluoro-1H-indol-5-yl)oxy)-2-fluorophenyl)-1H-imidazol-5-yl)methyl)-1H-pyrazol-1-yl)propanoic acid] the value was “B (B: 4-8° C.)”.
With `CC(c1cccc(CC(=O)O)c1F)n1cc(F)c(-c2ccc(F)c(Oc3c(F)cc4[nH]ccc4c3S(C)(=O)=O)c2)n1` (stereo not drawn) [Compound 55, 2-(2-fluoro-3-(1-(4-fluoro-3-(4-fluoro-3-((6-fluoro-4-(methylsulfonyl)-1H-indol-5-yl)oxy)phenyl)-1H-pyrazol-1-yl)ethyl)phenyl)acetic acid] the entry was “A (A: T ≥8° C.)”; with `CC(c1cccc(CCC(=O)O)c1F)c1nc(-c2cc(Oc3c(F)cc4[nH]ccc4c3F)ccc2F)n2ccccc12` (stereo not drawn) [Compound 46, 3-(3-(1-(3-(5-((4,6-difluoro-1H-indol-5-yl)oxy)-2-fluorophenyl)imidazo[1,5-a]pyridin-1-yl)ethyl)-2-fluorophenyl)propanoic acid], “C (C: ≤4° C.)”; with `Cn1cc(Cc2nnc(-c3cccc(Oc4ccc5[nH]ccc5c4)c3)[nH]2)cn1` [Compound 25, 5-(3-(5-((1-methyl-1H-pyrazol-4-yl)methyl)-4H-1,2,4-triazol-3-yl)phenoxy)-1H-indole], “C (C: ≤4° C.)”.
For `c1cc(Oc2ccc3[nH]ccc3c2)cc(-c2nnc(Cc3cscn3)[nH]2)c1` [Compound 13, 4-((5-(3-((1H-indol-5-yl)oxy)phenyl)-4H-1,2,4-triazol-3-yl)methyl)thiazole] the value was “C (C: ≤4° C.)”.
`Cc1c(Oc2ccc(F)c(-c3ccn(Cc4cnc(CCC(N)=O)s4)n3)c2)c(F)cc2[nH]ccc12` [Compound 6]: the “DSLS NBD1/3D Human Stability delta-T” value is on record as “C (C: ≤4° C.)”.
With `CC(c1cc(N)n(-c2cc(Oc3c(F)cc4[nH]ccc4c3F)ccc2F)n1)c1cccc(CCC(=O)O)c1F` (stereo not drawn) [Compound 48, 3-(3-(1-(5-amino-1-(5-((4,6-difluoro-1H-indol-5-yl)oxy)-2-fluorophenyl)-1H-pyrazol-3-yl)ethyl)-2-fluorophenyl)propanoic acid] the entry was “B (B: 4-8° C.)”; with `Cc1ncc(C(O)c2nnc(-c3cccc(Oc4ccc5[nH]ccc5c4C(=O)O)c3)[nH]2)s1` (stereo not drawn) [Compound 38, 5-(3-(5-(hydroxy(2-methylthiazol-5-yl)methyl)-4H-1,2,4-triazol-3-yl)phenoxy)-1H-indole-4-carboxylic acid], “C (C: ≤4° C.)”; with `Cn1cc(Cc2nnc(-c3cccc(Oc4ccc5[nH]ccc5n4)c3)[nH]2)cn1` [Compound 31, 5-(3-(5-((1-methyl-1H-pyrazol-4-yl)methyl)-4H-1,2,4-triazol-3-yl)phenoxy)-1H-pyrrolo[3,2-b]pyridine], “C (C: ≤4° C.)”.
For `c1cc(Oc2ccc3[nH]ccc3c2)cc(-c2nnc(Cc3nccs3)[nH]2)c1` [Compound 12, 2-((5-(3-((1H-indol-5-yl)oxy)phenyl)-4H-1,2,4-triazol-3-yl)methyl)thiazole] the value was “C (C: ≤4° C.)”.
With `c1cc(Oc2ccc3[nH]ccc3c2)cc(-c2nnc(Cc3ccsc3)[nH]2)c1` [Compound 11, 5-(3-(5-(thiophen-3-ylmethyl)-4H-1,2,4-triazol-3-yl)phenoxy)-1H-indole] the entry was “C (C: ≤4° C.)”; with `Cc1nc(Cc2nnc(-c3cccc(Oc4ccc5[nH]ccc5c4)c3)[nH]2)cs1` [Compound 17, 4-((5-(3-((1H-indol-5-yl)oxy)phenyl)-4H-1,2,4-triazol-3-yl)methyl)-2-methylthiazole], “C (C: ≤4° C.)”.
Turning to `NC(=O)CCc1ncc(Cc2cnc(-c3cc(Oc4c(F)cc5[nH]ccc5c4F)ccc3F)[nH]2)s1` [Compound 3, 3-(5-((2-(5-((4,6-difluoro-1H-indol-5-yl)oxy)-2-fluorophenyl)-1H-imidazol-5-yl)methyl)thiazol-2-yl)propanamide], the “DSLS NBD1/3D Human Stability delta-T” value is on record as “C (C: ≤4° C.)”.
